pIC50: −log10 of the molar value. Calls of active or inactive are those of the source. The calls are words filed in the database; no cut-off is given here.
Columns and labels:
[1] = target: Serine/threonine-protein kinase RIO2 (Homo sapiens) (UniProt Q9BVS4); assay: Inhibition of N-terminal GST-fused full length human recombinant RIOK2 expressed in baculovirus Sf21 cells assessed as reduction in kinase auto-phosphorylation at 10 uM in presence of ATP incubated for 1 hr by ELISA method
[2] = target: Serine/threonine-protein kinase RIO2 (Homo sapiens) (UniProt Q9BVS4); assay: Inhibition of N-terminal GST-fused full length human recombinant RIOK2 expressed in baculovirus Sf21 cells assessed as reduction in kinase auto-phosphorylation at 1 uM in presence of ATP incubated for 1 hr by ELISA method
FaDu [3] = assay: Cytotoxic activity against human FADU cancer stem cells incubated for 72 hrs by Cell-titer-Glo luminescence assay; assay type: functional, cell-based
[4] = target: T1, Ribosomal protein S6 kinase (Homo sapiens) (UniProt P51812+Q9UBS0+O75676+Q15349+O75582+P23443+Q9UK32+Q15418); assay: Inhibition of RPS6 kinase in human HeLa cells assessed as p-RPS6 Ser235/236 phosphorylation level at 5 uM incubated for 6 hrs by SDS-PAGE based chemiluminescence assay; assay type: cell-based; design: scale not given: the % may be the effect or the level left
FaDu [5] = assay: Cytotoxic activity against human FADU bulk cells incubated for 72 hrs by Cell-titer-Glo luminescence assay; assay type: functional, cell-based
ACHN [6] = assay: Cytotoxic activity against human ACHN cancer stem cells incubated for 72 hrs by Cell-titer-Glo luminescence assay; assay type: functional, cell-based
A549 [7] = assay: Cytotoxic activity against human A549 cancer stem cells incubated for 72 hrs by Cell-titer-Glo luminescence assay; assay type: functional, cell-based; conditions: A549, 72 h
[8] = target: T1, Ribosomal protein S6 kinase (Homo sapiens); assay: Inhibition of RPS6 kinase in human HeLa cells assessed as p-RPS6 Ser240/244 phosphorylation level at 5 uM incubated for 6 hrs by SDS-PAGE based chemiluminescence assay; assay type: cell-based; design: scale not given: the % may be the effect or the level left
[9] = target: AMP-activated protein kinase, AMPK (Homo sapiens) (UniProt P54646+O43741+P54619+Q9UGJ0+Q9Y478+Q13131+Q9UGI9); assay: Inhibition of AMPK in human HeLa cells assessed as kinase phosphorylation level at 5 uM incubated for 6 hrs by SDS-PAGE based chemiluminescence assay; assay type: cell-based; design: scale not given: the % may be the effect or the level left
A549 [10] = assay: Cytotoxic activity against human A549 bulk cells incubated for 72 hrs by Cell-titer-Glo luminescence assay; assay type: functional, cell-based; conditions: A549, 72 h
ACHN [11] = assay: Cytotoxic activity against human ACHN bulk cells incubated for 72 hrs by Cell-titer-Glo luminescence assay; assay type: functional, cell-based
[12] = target: Mitogen-activated protein kinase; ERK1/ERK2 (Homo sapiens) (UniProt P27361+P28482); assay: Inhibition of ERK phosphorylation in cells (unknown origin) incubated for 6 hrs by Western blot based cell based method
Sequence of Mitogen-activated protein kinase; ERK1/ERK2 (Homo sapiens) (P27361 whole entry, looked up): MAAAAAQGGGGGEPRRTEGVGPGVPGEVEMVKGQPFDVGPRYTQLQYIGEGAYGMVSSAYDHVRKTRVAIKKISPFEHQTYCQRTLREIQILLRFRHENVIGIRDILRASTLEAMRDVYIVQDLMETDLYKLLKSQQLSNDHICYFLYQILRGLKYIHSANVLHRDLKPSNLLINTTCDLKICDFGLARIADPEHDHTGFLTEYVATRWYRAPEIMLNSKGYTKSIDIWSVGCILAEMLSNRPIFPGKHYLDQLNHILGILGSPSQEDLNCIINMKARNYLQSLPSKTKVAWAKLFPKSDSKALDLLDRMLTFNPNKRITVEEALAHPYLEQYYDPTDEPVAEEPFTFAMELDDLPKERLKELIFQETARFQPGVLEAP
Sequence of Mitogen-activated protein kinase; ERK1/ERK2 (Homo sapiens) (P28482 whole entry, looked up): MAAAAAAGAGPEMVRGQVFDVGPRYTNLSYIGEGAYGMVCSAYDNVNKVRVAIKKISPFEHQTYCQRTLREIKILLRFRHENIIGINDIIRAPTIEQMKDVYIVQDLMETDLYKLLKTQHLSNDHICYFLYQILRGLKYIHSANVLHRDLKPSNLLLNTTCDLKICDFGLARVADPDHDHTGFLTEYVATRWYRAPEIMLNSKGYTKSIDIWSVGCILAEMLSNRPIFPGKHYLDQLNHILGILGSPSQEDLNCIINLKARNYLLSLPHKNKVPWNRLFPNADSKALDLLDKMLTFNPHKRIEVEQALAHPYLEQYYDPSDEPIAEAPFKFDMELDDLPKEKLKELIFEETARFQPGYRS

Sequence of Serine/threonine-protein kinase RIO2 (Homo sapiens) (Q9BVS4 whole entry, looked up, the tested form may be a part): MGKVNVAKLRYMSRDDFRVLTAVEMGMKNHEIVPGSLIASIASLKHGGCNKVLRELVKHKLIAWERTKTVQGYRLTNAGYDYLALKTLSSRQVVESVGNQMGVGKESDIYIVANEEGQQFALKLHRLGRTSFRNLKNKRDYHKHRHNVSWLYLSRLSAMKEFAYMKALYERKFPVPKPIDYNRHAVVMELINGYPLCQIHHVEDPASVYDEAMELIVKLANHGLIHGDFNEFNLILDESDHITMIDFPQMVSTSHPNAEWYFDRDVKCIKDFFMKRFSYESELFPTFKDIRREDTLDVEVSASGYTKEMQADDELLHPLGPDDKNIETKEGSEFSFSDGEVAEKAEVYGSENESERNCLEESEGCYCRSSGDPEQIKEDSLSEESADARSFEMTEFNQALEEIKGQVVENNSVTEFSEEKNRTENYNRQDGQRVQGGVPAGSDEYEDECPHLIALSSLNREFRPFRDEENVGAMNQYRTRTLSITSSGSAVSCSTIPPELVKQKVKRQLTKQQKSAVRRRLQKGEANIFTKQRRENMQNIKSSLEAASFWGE

Row | inhibition [1] [%] | inhibition [2] [%] | SMILES | pIC50 (FaDu [3]) | pIC50 (FaDu [5]) | pIC50 (A549 [10]) | further results
1 | 137 | 29 | CCN(CC)CCNC(=O)c1c(C)[nH]c(/C=C2\C(=O)Nc3ccc(-c4ccnn4-c4cccc(C)c4)cc32)c1C |  |  |  | 
2 |  |  | CCN(CC)CCNC(=O)c1c(C)[nH]c(/C=C2\C(=O)Nc3c2cccc3-c2cncnc2)c1C | 5.17 | 4.44 | 4.67 | Activity [4]: 71%; pIC50 (ACHN [6]): 4.96; pIC50 (A549 [7]): 4.56; Activity [8]: 72%; Activity [9]: 60%; pIC50 (ACHN [11]): 4.78
3 | 56 | 32 | CCN(CC)CCNC(=O)c1c(C)[nH]c(/C=C2\C(=O)Nc3ccc(-c4ncc(-c5ccccc5)o4)cc32)c1C | 4.56 | 5.13 |  | pIC50 (A549 [7]): 6.46
4 | 43 | -7 | CCOCCCNC(=O)c1c(C)[nH]c(/C=C2\C(=O)Nc3ccc(-c4cnn(-c5ccccc5)c4)cc32)c1C |  |  |  | 
5 | 112 | 42 | CCN(CC)CCNC(=O)c1c(C)[nH]c(/C=C2\C(=O)Nc3ccc(-c4cnn(-c5ncccn5)c4)cc32)c1C |  |  |  | 
6 |  |  | CCN(CC)CCNC(=O)c1c(C)[nH]c(/C=C2\C(=O)Nc3cccc(-c4ccc(-c5ccccc5)cc4)c32)c1C | 6.55 | 5.95 | 5.29 | Activity [4]: 2%; pIC50 (ACHN [6]): 6.48; pIC50 (A549 [7]): 5.36; Activity [8]: 23%; Activity [9]: 8%; pIC50 (ACHN [11]): 5.80
7 | 96 | 20 | CCN(CC)CCCNC(=O)c1c(C)[nH]c(/C=C2\C(=O)Nc3ccc(-c4cnn(-c5ccccc5)c4)cc32)c1C |  |  |  | 
8 | 65 | 7 | Cc1[nH]c(/C=C2\C(=O)Nc3ccc(-c4cnn(-c5ccccc5)c4)cc32)c(C)c1C(=O)NCC1(N)CCCC1 |  |  |  | 
9 |  |  | Cc1cc(C)c(/C=C2\C(=O)Nc3ccc(-c4ccc(C=O)cc4)cc32)[nH]1 |  | 4.57 | 4.53 | inhibition [12]: Active
10 | 68 | 32 | CCN(CC)CCNC(=O)c1c(C)[nH]c(/C=C2\C(=O)Nc3ccc(-c4cnn(C5CCOCC5)c4)cc32)c1C | 5.59 | 5.37 | 4.80 | pIC50 (ACHN [11]): 4.98
11 | 91 | 53 | Cc1[nH]c(/C=C2\C(=O)Nc3ccc(-c4cnn(-c5ccccn5)c4)cc32)c(C)c1C(=O)NCCN1CCCC1 | 5.78 | 5.60 | 5.60 | Activity [4]: 82%; pIC50 (ACHN [6]): 6.66; pIC50 (A549 [7]): 4.93; Activity [8]: 92%; Activity [9]: 52%; pIC50 (ACHN [11]): 5.79
12 | 107 | 6 | Cc1[nH]c(/C=C2\C(=O)Nc3ccc(-c4cnn(-c5ccccc5)c4)cc32)c(C)c1C(=O)NC1(CN2CCCCC2)CC1 |  |  |  | 
13 | 106 | 34 | CCN(CC)CCNC(=O)c1c(C)[nH]c(/C=C2\C(=O)Nc3ccc(-c4ccnn4-c4ccc(OC)cc4)cc32)c1C |  |  |  | 
14 | 68 | 9 | CCN(CC)CCNC(=O)c1c(C)[nH]c(/C=C2\C(=O)Nc3ccc(-c4ccnn4-c4ccc(C(F)(F)F)cc4)cc32)c1C |  |  |  | 
15 | 126 | 9 | Cc1[nH]c(/C=C2\C(=O)Nc3ccc(-c4cnn(-c5ccccc5)c4)cc32)c(C)c1C(=O)NC[C@H]1CCCN1 |  |  |  | 
16 | 122 | 1.4 | Cc1[nH]c(/C=C2\C(=O)Nc3ccc(-c4cnn(-c5ccccc5)c4)cc32)c(C)c1C(=O)N[C@H]1CCCNC1 |  |  |  | 
17 |  |  | CCN(CC)CCNC(=O)c1c(C)[nH]c(/C=C2\C(=O)Nc3c2cccc3-c2ccc3cc[nH]c3c2)c1C | 5.69 | 5.56 | 5.54 | Activity [4]: 29%; pIC50 (ACHN [6]): 5.73; pIC50 (A549 [7]): 5.41; Activity [8]: 44%; Activity [9]: 39%; pIC50 (ACHN [11]): 5.52
18 | 94 | 13 | Cc1[nH]c(/C=C2\C(=O)Nc3ccc(-c4cnn(-c5ccccc5)c4)cc32)c(C)c1C(=O)NC[C@@H]1CCCN1 |  |  |  | 
19 |  |  | CCN(CC)CCNC(=O)c1c(C)[nH]c(/C=C2\C(=O)Nc3c2cccc3-c2ccncc2)c1C | 5.36 | 5.17 | 5.16 | Activity [4]: 60%; pIC50 (ACHN [6]): 5.30; pIC50 (A549 [7]): 4.90; Activity [8]: 65%; Activity [9]: 56%; pIC50 (ACHN [11]): 5.19
20 | 111 | 18 | CCN(CC)CCNC(=O)c1c(C)[nH]c(/C=C2\C(=O)Nc3ccc(-c4cnn(-c5nccs5)c4)cc32)c1C |  |  |  | 
21 | 99 | 41 | CCN(CC)CCNC(=O)c1c(C)[nH]c(/C=C2\C(=O)Nc3ccc(-c4cnn(-c5cscn5)c4)cc32)c1C |  |  |  | 
22 | 116 | 56 | CCN(CC)CCNC(=O)c1c(C)[nH]c(/C=C2\C(=O)Nc3ccc(-c4ccnn4-c4ccccc4F)cc32)c1C |  |  |  | 
